Data: patent publication US12692529B2, “Quantitative screen for the assessment of inter-individual variability in drug metabolism by the human gut microbiome” (The Trustees of Princeton University, priority 2020, dated 2026)

What was measured:
[1] = test system: ex vivo cultures of donor gut microbiome (BG medium); experiment: MDMQ-Screen 20-donor screen: drug depletion and metabolite production in ex vivo cultures, targeted metabolomics by HPLC-HRMS; conditions: for MDM in drug depletion across donors / MDM in metabolite production across donors / MDM (microbiome-derived metabolism) across donors: 20 donors, BG medium, drug 33 μM, 24-hour incubation; for MDM in drug depletion across donors: significant if FDR p<0.01 and depletion >50% vs controls; for MDM in metabolite production across donors: significant if FDR p<0.01 vs all three controls; for Pearson correlation coefficient of drug signal and sum of known metabolite signals (drug depletion vs metabolite production): all donor-drug ex vivo samples, known (quantified) metabolites only
[2] = test system: ex vivo cultures of donor gut microbiome (BG medium); experiment: Untargeted metabolomics with molecular ion networking for new metabolite discovery in the 20-donor screen; type: in vitro ADME, human
Method: In order to extract all features in a given sample, a batch recursive feature extraction method for small molecules and peptides within Profinder 8 (Agilent) can be used. The following settings in the method were changed from default: compound ion count threshold set to two ions, alignment retention time tolerance set to 0.2 min, minimum MFE score set to 90, minimum file prevalence set to 2, expected retention time set to ±1 min, retention time contribution to matching score set to 90, expected MS1 mass variation set to 10 ppm, expected retention time tolerance set to 0.2 min, absolute height threshold for EIC integration set to 2500 counts, and final absolute height threshold set to 5000. The resulting feature abundances were then analyzed in MATLAB. Any sample whose internal standard AUC is less than 10^6 was removed. Hypothesis testing was then performed using similar statistical methods as for metabolite production in the targeted metabolomics, except that the multiple hypothesis correction of Storey (Storey, 2002) was used in place of the Benjamini-Hochberg method and require a fold-change cut-off of two relative to all controls. […] All ions already quantified in the screen and all features that are statistically significant for more than one drug are removed. […]

SMILES | MDM in drug depletion across donors [1] | MDM in metabolite production across donors [1] | other results
Cc1nc2n(c(=O)c1CCN1CCC(c3noc4cc(F)ccc34)CC1)CCCC2 [risperidone] | consistently positive |  | 
CC(=O)S[C@@H]1CC2=CC(=O)CC[C@]2(C)[C@H]2CC[C@@]3(C)[C@@H](CC[C@@]34CCC(=O)O4)[C@H]12 [spironolactone] | consistently positive | variable | 
CCCCCOC(=O)Nc1nc(=O)n([C@@H]2O[C@H](C)[C@@H](O)[C@H]2O)cc1F [capecitabine] | variable | variable | 
COc1c(C)c2c(c(O)c1C/C=C(\C)CCC(=O)OCCN1CCOCC1)C(=O)OC2 [mycophenolate mofetil] | variable | variable | 
O=C1CN=C(c2ccccc2Cl)c2cc([N+](=O)[O-])ccc2N1 [clonazepam] | consistently positive | consistently positive | 
C#C[C@]1(O)CC[C@H]2[C@@H]3CCC4=CC(=O)CC[C@@H]4[C@H]3CC[C@@]21CC [levonorgestrel] | variable |  | 
Cc1ccc(C(=O)c2cc(O)c(O)c([N+](=O)[O-])c2)cc1 [tolcapone] |  | consistently positive | 
CC(=O)N1CCN(c2ccc(OCC3COC(Cn4ccnc4)(c4ccc(Cl)cc4Cl)O3)cc2)CC1 (stereo not drawn) [ketoconazole] |  |  | MDM (microbiome-derived metabolism) across donors [1]: consistently negative
C[C@]12CCC(=O)C=C1CC[C@@H]1[C@@H]2[C@@H](O)C[C@@]2(C)[C@H]1CC[C@]2(O)C(=O)CO [hydrocortisone] | variable |  | 
Cc1cccc(Nc2ccncc2S(=O)(=O)NC(=O)NC(C)C)c1 [torsemide] |  |  | MDM (microbiome-derived metabolism) across donors [1]: consistently negative
CC1=C(CC(=O)O)c2cc(F)ccc2/C1=C\c1ccc([S+](C)[O-])cc1 (stereo not drawn) [sulindac] | variable | variable | 
CCCN(CCC)CCc1cccc2c1CC(=O)N2 [ropinirole] |  |  | MDM (microbiome-derived metabolism) across donors [1]: consistently negative
CCCCC(C)(O)C/C=C/[C@H]1[C@H](O)CC(=O)[C@@H]1CCCCCCC(=O)OC (mixture of isomers) [misoprostol] | consistently positive |  | 
CC(C)/N=c1\cc2n(-c3ccc(Cl)cc3)c3ccccc3nc-2cc1Nc1ccc(Cl)cc1 [clofazimine] | variable | variable | 
COC(=O)C1=C(C)NC(C)=C(C(=O)OCCN(C)Cc2ccccc2)C1c1cccc([N+](=O)[O-])c1 (stereo not drawn) [nicardipine] |  |  | Pearson correlation coefficient of drug depletion and metabolite production after inclusion of metabolites discovered by untargeted metabolomics ([1]; after inclusion of 11 additional metabolites, FDR corrected p=0.0102): −0.6; Pearson correlation coefficient of drug signal and sum of known metabolite signals (drug depletion vs metabolite production) [1]: −0.22; number of additional metabolites detected by the untargeted metabolomics pipeline [2]: 11
CC[C@H](C)C(=O)O[C@H]1C[C@@H](C)C=C2C=C[C@H](C)[C@H](CC[C@@H]3C[C@@H](O)CC(=O)O3)[C@H]21 [lovastatin] | variable | variable | 
O=C(CCCCCCC(=O)Nc1ccccc1)NO [vorinostat] | variable |  | Pearson correlation coefficient of drug signal and sum of known metabolite signals (drug depletion vs metabolite production) [1]: −0.91
